Article PMC9671962 (Communications Biology, 2022)
Like-named read-outs stand apart in the source and are kept apart here.

Experiments:
neuroblastoma = conditions: cited from earlier work
[1] = parameters: method as in PMID 27841728, PMID 28222073; conditions: cited from earlier work
[2] = parameters: method as in PMID 28408529; conditions: cited from earlier work
NB-EBC1x tumor = test: Biodistribution, autoradiography and tumor dosimetry in NB-EBC1x tumor-bearing mice; assay type: in vivo, female SCID CB17 mice; conditions: 1 hour
Procedure: At various time points mice were euthanized and tissues were harvested, weighed, and assayed for radioactivity by gamma counter. Decay corrected data presented as percent injected dose per gram of tissue (%ID/g). Human dosimetry was calculated using OLINDA/EXM software by fitting time activity curves for biodistribution data. Tissue autoradiography was performed by freezing excised tumors at 1 h postinjection of each respective treatment. One tumor was collected for each treatment group. Tumors were cryosectioned (Leica Cryotome) at a thickness of 20 µm. Each section was collected with a 200 µm gap and a total of three sections were collected for each tumor. Sections were then exposed to a phosphorfilm for 60 h and films were read on a Cyclone Plus phosphorimager (Perkin Elmer). Experimental conditions have been included in the Supplementary Methods.
Animal studies were performed in female mice due to the lack of sex-related differences for [^211At]PTT tolerability from initial dose response studies performed in female and male mice. Female mice were chosen due to their underlying behavior towards other study subjects that reduced nonstudy-related causes for decreased wellness. Pre-clinical efficacy studies were performed through “single mouse testing” to more closely recapitulate a clinical trial. […] Number size for treatment groups was determined by model tumor growth reproducibility, which was previously shown to have less than 5% normal variation with at least two animals. Statistical tests for tumor response and event-free survival (EFS) were performed as a grouped analysis that included all tumor models treated at each respective dose level (n = 2 per model per dose level). Statistical differences between treatment groups for tumor response was performed by paired-model T-test that compared reduction in tumor volume for the 36 MBq/kg dose level vs. 24 MBq/kg or 12 MBq/kg. Event free survival was measured by area over the curve method to quantify time to event, which was set as tumor growth exceeding 2 cm[3],[19]. Differences in EFS were tested across all treated models for each respective dose level, and against untreated controls, by paired-model ANOVA analysis. Associations of drug target expression and response were performed by linear regression analysis of EFS and PARP1 mRNA expression. Genetic signatures were visually presented as a function of EFS and no statistical tests were applied. Blood and marrow toxicity studies were performed with n = 5 sample sizes and powered to detect >20% differences between untreated controls and treated animals. Results were tested for significance by one-way ANOVA comparison from untreated controls. Marrow colony formation assays were performed in replicates of 2 for each mouse subject, dependent on marrow isolation, and all replicates are included in final analyses. Statistical analysis was performed by ordinary one-way ANOVA comparison between the mean of control and test groups. Biodistribution studies were performed with n = 3 mice per time-point. Human dosimetry was calculated using OLINDA/EXM v1.1 software by fitting time activity curves for biodistribution data in a healthy mouse model. Tumor dosimetry was calculated by OLINDA/EXM v1.1 by fitting time activity curves for NB-EBC1 tumors from biodistribution data. All statistical analyses were performed in GraphPad Prism version 9.3.1 unless indicated otherwise.

[3] = in vitro; ref previously shown by the authors, no reference given; cited from earlier work
[4] = mice; cited from earlier work
PARP1 = conditions: cited from earlier work; for maximum standardized uptake values (SUVmax): clinical PET
[5] = parameters: method as in PMID 27841728, PMID 27261505; conditions: cited from earlier work

## N=C(N)NCc1cccc([131I])c1 [[^131I]MIBG, iodine-131-metaiodobenzylguanidine]
neuroblastoma
  overall survival benefit: below 40%

## CNCc1ccc(-c2[nH]c3cc(F)cc4c3c2CCNC4=O)cc1 [rucaparib]
[1]
  hepatobiliary clearance, share of blood clearance: > 90%

## O=C([O-])CC[C@H](NC(=O)N[C@@H](CCCCNC(=O)[C@H](Cc1ccc2ccccc2c1)NC(=O)C1CCC(CNC(=O)CN2CCN(CC(=O)[O-])CCN(CC(=O)[O-])CCN(CC(=O)[O-])CC2)CC1)C(=O)[O-])C(=O)[O-].[225Ac].[H+].[H+].[H+] (stereo partly shown) [[^225Ac]PSMA-617]
[2]
  kidney dose: 740 mSv/MBq

## [211At] [free astatine-211, astatine-211, reference compound]
NB-EBC1x tumor; 2-way ANOVA p value 0.0088
  tumor uptake compared to [^211At]PTT: lower uptake in tumor
NB-EBC1x tumor; 2-way ANOVA p-value 0.0004
  thyroid uptake compared to [^211At]PTT: significantly higher uptake in thyroid
[3]
  potency relative to [211At]PTT in vitro: < 100 times
[4]
  MTD for a single dose: greater than 50 MBq/kg

## O=C1NCCn2c(-c3ccc(OCC[18F])cc3)nc3cccc1c32 [[^18F]FTT, fluorine-18 Fluorthanatrace]
PARP1; adults
  estimated kidney dose: 0.018–0.027 mGy/MBq
PARP1; breast cancer
  maximum standardized uptake values (SUVmax): 4–7
PARP1; ovarian cancer patients, minimal wash-out
  time of rapid tumor uptake kinetics post injection: 60 to 180 min
PARP1; ovarian cancer
  maximum standardized uptake values (SUVmax): 2–9
[5]
  thyroid uptake: around 4 % ID/g
[1]
  hepatobiliary clearance, share of blood clearance: > 90%
